Tests used:
[1] = test system: relapsed and refractory multiple myeloma; conditions: Richardson et al. 2003, Phase 2; cited from earlier work
[2] = test system: human tumor xenograft models; conditions: Albanell and Adams 2002; cited from earlier work
[3] = Comparative toxicity in wild-type mice (body weight, lethality); assay type: in vivo, CD1 wild type mice
Description: The effect of nanoparticles in mitigating the toxicity of bortezomib was examined in wild-type mice. Different doses of bortezomib alone (1.5, 3, 6, 9 and 12 mg/kg) or bortezomib-nanoparticles (NP) (0.9, 1.8, 3.6, 5.4 and 7.2 mg/kg) were injected into CD1 wild type. Three mice were used in each group of bortezomib alone and bortezomib-NP groups, body weights, food and water uptake were measured every day for 22 days.

## CC(C)C[C@H](NC(=O)[C@H](Cc1ccccc1)NC(=O)c1cnccn1)B(O)O [bortezomib, N-2-pyrazinecarbonyl-L-phenylalanine-L-leucineboronic acid]
[1]
  effectiveness in patients: effectiveness in treating relapsed and refractory multiple myeloma
[2]
  antitumor activity: significant antitumor activity
[3]; 6 mg/kg dose
  survival: two
[3]; 9 mg/kg dose
  survival: died after Day 1

From patent publication US20190151340A1, “POLYMERIC NAN[…]” (priority 2017, published 2019)
